Data as given in the supplement of paper PMC4862054.

What was measured:
Test in all cases: normalised viability (% of control), CellTiter-Blue; higher = more viable cells (about 100 = DMSO control)
Conditions in all cases: incubation time: 72 h
[1] = test system: MDA-MB-453
Description: (§1)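 DSRT, CellTiter-Blue viability, 72 h incubation. Signal is normalised to DMSO and benzethonium chloride controls. Value is the normalised response at dose 7.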

[2] = test system: CAL-148
Description: as §1

[3] = test system: CAL-85-1
Description: as §1

[4] = test system: DU-4475
Description: as §1

[5] = test system: HDQ-P1
Description: as §1

[6] = test system: CAL-51
Description: as §1

[7] = test system: MDA-MB-453; remark: listed apart in the source
Description: (§2)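 DSRT, CellTiter-Blue viability, 72 h incubation. Signal is normalised to DMSO and benzethonium chloride controls. Value is the normalised response at dose 9.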

[8] = test system: CAL-148; remark: listed apart in the source
Description: as §2

[9] = test system: CAL-85-1; remark: listed apart in the source
Description: as §2

[10] = test system: DU-4475; remark: listed apart in the source
Description: as §2

[11] = test system: HDQ-P1; remark: listed apart in the source
Description: as §2

[12] = test system: CAL-51; remark: listed apart in the source
Description: as §2

[13] = test system: SK-BR-3
Outline: (§3)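 Plates were quality-checked by Z'-factor and normalised to vehicle (100) and a positive kill control (0). The underlying assay incubated breast cancer cell lines for 72 h on 384-well plates with compound, then added 2.5 µl CellTiter-Blue for 2 h at 37 °C and read at 560/590 nm. The value is normalised viability at a single listed concentration of the series.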

[14] = test system: HCC1937
Outline: as §3

[15] = test system: HCC1599
Outline: as §3

[16] = test system: MDA-MB-468
Outline: as §3

[17] = test system: MDA-MB-453; remark: listed apart in the source
Outline: as §3

[18] = test system: MDA-MB-231
Outline: as §3

[19] = test system: CAL-148; remark: listed apart in the source
Outline: as §3

[20] = test system: CAL-85-1; remark: listed apart in the source
Outline: as §3

[21] = test system: DU-4475; remark: listed apart in the source
Outline: as §3

[22] = test system: HCC1143
Outline: as §3

[23] = test system: HDQ-P1; remark: listed apart in the source
Outline: as §3

[24] = test system: Hs578T
Outline: as §3

[25] = test system: CAL-120
Outline: as §3

[26] = test system: MFM-223
Outline: as §3

[27] = test system: BT-549
Outline: as §3

[28] = test system: CAL-51; remark: listed apart in the source
Outline: as §3

[29] = test system: BT-474
Outline: as §3

[30] = test system: CAL-148; remark: listed apart in the source
Description: (§4)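 DSRT, CellTiter-Blue viability, 72 h incubation. Signal is normalised to DMSO and benzethonium chloride controls. Value is the normalised response at dose 8.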

[31] = test system: CAL-85-1; remark: listed apart in the source
Description: as §4

[32] = test system: DU-4475; remark: listed apart in the source
Description: as §4

## CCCCCCCCc1ccc(CCC(N)(CO)CO)cc1 [Fingolimod]
[1]; 1000 nM
  normalised viability: 103%
[2]; 1000 nM
  normalised viability: 96.3%
[3]; 1000 nM
  normalised viability: 93.4%
[4]; 1000 nM
  normalised viability: 109%
[5]; 1000 nM
  normalised viability: 110%
[6]; 1000 nM
  normalised viability: 112%
[7]; 10000 nM
  normalised viability: 2.6%
[8]; 10000 nM
  normalised viability: 62.2%
[9]; 10000 nM
  normalised viability: 4.87%
[10]; 10000 nM
  normalised viability: 136%
[11]; 10000 nM
  normalised viability: 0.67%
[12]; 10000 nM
  normalised viability: 91.8%
[13]; 1000 nM
  normalised viability: 108%
[14]; 1000 nM
  normalised viability: 95.4%
[15]; 1000 nM
  normalised viability: 113%
[16]; 1000 nM
  normalised viability: 105%
[17]; 30 nM
  normalised viability: 100%
[18]; 1000 nM
  normalised viability: 86.8%
[19]; 30 nM
  normalised viability: 84%
[20]; 30 nM
  normalised viability: 87.1%
[21]; 30 nM
  normalised viability: 119%
[22]; 1000 nM
  normalised viability: 106%
[23]; 30 nM
  normalised viability: 126%
[24]; 1000 nM
  normalised viability: 100%
[25]; 1000 nM
  normalised viability: 88.5%
[26]; 1000 nM
  normalised viability: 106%
[27]; 1000 nM
  normalised viability: 88.7%
[28]; 30 nM
  normalised viability: 111%
[29]; 1000 nM
  normalised viability: 113%
[30]; 3000 nM
  normalised viability: 88.8%
[31]; 3000 nM
  normalised viability: 91.7%
[32]; 3000 nM
  normalised viability: 117%

## Cc1cc2c(C(C)C)c(O)c(O)c(C=O)c2c(O)c1-c1c(C)cc2c(C(C)C)c(O)c(O)c(C=O)c2c1O [Gossypol]
[1]; 10000 nM
  normalised viability: 18.4%
[2]; 10000 nM
  normalised viability: 70.7%
[3]; 10000 nM
  normalised viability: 45.8%
[4]; 10000 nM
  normalised viability: 2.82%
[5]; 10000 nM
  normalised viability: 52.5%
[6]; 10000 nM
  normalised viability: 60.5%
[7]; 100000 nM
  normalised viability: 2.75%
[8]; 100000 nM
  normalised viability: 3.73%
[9]; 100000 nM
  normalised viability: 3.4%
[10]; 100000 nM
  normalised viability: 4.97%
[11]; 100000 nM
  normalised viability: 4.15%
[12]; 100000 nM
  normalised viability: 2.71%
[13]; 10000 nM
  normalised viability: 28.6%
[14]; 10000 nM
  normalised viability: 23.3%
[15]; 10000 nM
  normalised viability: 47.2%
[16]; 10000 nM
  normalised viability: 6.5%
[17]; 300 nM
  normalised viability: 103%
[18]; 10000 nM
  normalised viability: 22.8%
[19]; 300 nM
  normalised viability: 109%
[20]; 300 nM
  normalised viability: 87.3%
[21]; 300 nM
  normalised viability: 93.9%
[22]; 10000 nM
  normalised viability: 49%
[23]; 300 nM
  normalised viability: 141%
[24]; 10000 nM
  normalised viability: 6%
[25]; 10000 nM
  normalised viability: 37.5%
[26]; 10000 nM
  normalised viability: 23.3%
[27]; 10000 nM
  normalised viability: 19.5%
[28]; 300 nM
  normalised viability: 94.2%
[29]; 10000 nM
  normalised viability: 21.5%
[30]; 30000 nM
  normalised viability: 7.03%
[31]; 30000 nM
  normalised viability: 5.42%
[32]; 30000 nM
  normalised viability: 4.25%

## O=C(O)CCCc1ccc(N(CCCl)CCCl)cc1 [Chlorambucil]
[1]; 1000 nM
  normalised viability: 113%
[2]; 1000 nM
  normalised viability: 105%
[3]; 1000 nM
  normalised viability: 97.5%
[4]; 1000 nM
  normalised viability: 103%
[5]; 1000 nM
  normalised viability: 98.9%
[6]; 1000 nM
  normalised viability: 101%
[7]; 10000 nM
  normalised viability: 65%
[8]; 10000 nM
  normalised viability: 89.7%
[9]; 10000 nM
  normalised viability: 98%
[10]; 10000 nM
  normalised viability: 90.9%
[11]; 10000 nM
  normalised viability: 115%
[12]; 10000 nM
  normalised viability: 96.5%
[13]; 1000 nM
  normalised viability: 105%
[14]; 1000 nM
  normalised viability: 68.7%
[15]; 1000 nM
  normalised viability: 97.1%
[16]; 1000 nM
  normalised viability: 68.3%
[17]; 30 nM
  normalised viability: 94.3%
[18]; 1000 nM
  normalised viability: 109%
[19]; 30 nM
  normalised viability: 104%
[20]; 30 nM
  normalised viability: 92.7%
[21]; 30 nM
  normalised viability: 92%
[22]; 1000 nM
  normalised viability: 93.9%
[23]; 30 nM
  normalised viability: 94.1%
[24]; 1000 nM
  normalised viability: 102%
[25]; 1000 nM
  normalised viability: 98.5%
[26]; 1000 nM
  normalised viability: 106%
[27]; 1000 nM
  normalised viability: 102%
[28]; 30 nM
  normalised viability: 112%
[29]; 1000 nM
  normalised viability: 112%
[30]; 3000 nM
  normalised viability: 96.7%
[31]; 3000 nM
  normalised viability: 97.7%
[32]; 3000 nM
  normalised viability: 125%
